In experiment [1] the target is T1, UptA (Bacillus subtilis, UniProt O31823). The experiment can be described thus: Native MS of antibiotic binding to UptA. The settings on record: 2.5 µM UptA, 10 µM C55-P, antibiotic up to 100 µM (polymyxins 100 µM), 0.05% LDAO, 200 mM ammonium acetate, 75 V. Here is the method: We next investigate how UptA and its complex with C55-P interact with a range of cell-wall targeting antibiotics including the lipopeptides daptomycin and amphomycin. […] We investigated whether daptomycin affects C55-P binding to UptA by recording spectra for solutions containing 2.5 µM UptA, 10 µM C55-P, and different concentrations of daptomycin.
(§1) Amphomycin and derivatives are known to kill bacteria by forming complexes with free C55-P ([46]), however, whether or not this involves a direct interaction with a protein cellular target is not known. We therefore investigated how amphomycin affects the UptA:C55-P complex. We recorded spectra for solutions containing 2.5 µM UptA, 10 µM C55-P and then equilibrated aliquots with increasing concentrations of amphomycin.
The amphiphilic nature of daptomycin and amphomycin raises the possibility that these lipopeptide antibiotics may promiscuously bind to UptA in a nonspecific manner. We probe this possibility by recording spectra for UptA:C55-P solutions in the presence of 100 µM polymyxin B and 100 µM polymyxin E. These polymyxins are membrane-disrupting lipopeptides that target the outer membrane lipopolysaccharides in Gram-negative bacteria ([47]) but without a known affinity for C55-P or UptA.
To this end, we prepared UptA:C55-P mixtures and then equilibrated aliquots with bacitracin and vancomycin.
(§2) Detailed experimental procedures are provided in SI Appendix. Briefly, UptA (wild type and mutants) was expressed in E. coli C43(DE3) cells (Lucigen) with GFP fusion on the C-terminus and solubilized from the membrane fraction by n-dodecyl-β-D-maltopyranoside (DDM). After purification by affinity chromatography, the GFP was cleaved by TEV protease and removed, and UptA was further purified by size-exclusion chromatography in a buffer containing 20 mM Tris-HCl (pH 8.0), 200 mM NaCl, 0.02% DDM. Before measurements, proteins were buffer-exchanged into 0.05% LDAO, 200 mM ammonium acetate at the desired pH using a centrifugal buffer exchange device (Micro Bio-Spin 6, Bio-Rad). Stock solutions of lipids were prepared from chloroform/methanol solution by evaporating aliquots of known volume in a SpeedVac. After drying, the lipid films were weighed and resuspended to a final concentration of 0.5 mM in 200 mM ammonium acetate and 0.05% LDAO by vertexing. Stock solutions of 0.5 mM amphomycin, aspartocin D, daptomycin, polymyxin B, polymyxin E, and bacitracin were made in the same buffer. All experiments were repeated three times from newly prepared stock solutions. Native mass spectrometry was performed on a Q-Exactive hybrid quadrupole-Orbitrap mass spectrometer (Thermo Fisher Scientific, Bremen, Germany), and lipid identification was performed on an Orbitrap Eclipse Tribrid mass spectrometer (Thermo). […]

For a further experiment, the system named is UptA:C55-P complex. The experiment can be described thus: Native MS of UptA:C55-P complex in the presence of antibiotics. The settings on record: 2.5 µM UptA, 10 µM C55-P, 0 to 100 µM antibiotic, 75 V; mean of three independent replicates. It counts as binding, Bacillus subtilis. Here is the method: as §1
(A) Mass spectra (6+ charge state) for solutions containing 2.5 µM UptA and 10 µM C55-P incubated with 0 to 100 µM amphomycin. (B) Relative intensity of C55-P bound to UptA in the presence of amphomycin and daptomycin. The bar represents the mean of three independent replicates shown as data points and error bars are SD. […] (C) Fraction of C55-P bound to UptA in the presence of cell wall targeting antibiotics. Each sample contains 2.5 µM UptA, 10 µM C55-P and 100 µM of indicated antibiotic, and spectra were acquired using the same instrument settings and collisional activation of 75 V. The bar represents the mean of three independent replicates shown as data points, and the error bar represents SD. […]
as §2

For experiment [2], the target named is T1, UptA. The experiment can be described thus: Native MS of phospholipid binding to UptA. The settings on record: for UptA-lipid complexes formed (stoichiometry, in words): 4 µM UptA with 10 µM lipid, native MS.
Excerpt: Proteins belonging to the DedA family are a widespread family of transporters and are proposed to flip diverse lipids, including carrier lipids and membrane phospholipids. We therefore probed the interaction of UptA with membrane phospholipids to understand whether the latter could modulate its function. For this purpose, we selected anionic phosphatidylglycerols (PG) and zwitterionic phosphatidylethanolamines (PE), representing the major classes of phospholipid headgroups found in B. subtilis ([41], [42]). We recorded mass spectra of solutions containing 4 µM UptA incubated with 10 µM a15:0-i15:0 PE and 10 µM a15:0-i15:0 PG (a15:0, anteiso-pentadecanoic acid; i15:0, iso-pentadecanoic acid). The fatty acid composition of these lipids closely mimics those of native B. subtilis lipids (see below). The resulting spectra display peaks corresponding to UptA in apo and lipid-bound forms in both cases (Fig. 4 A and B). […] We therefore hypothesize that UptA interacts more favorably with PG than with PE.
To verify the lipid binding preference of UptA with more native-like lipids, we prepared lipid extracts from B. subtilis membranes (Materials and Methods). We then incubate an aliquot of the resulting crude lipids (SI Appendix, Fig. S8) with UptA. The spectra yielded peaks assigned to UptA in complex with cardiolipins (~1,326 Da) and a range of phospholipids, predominantly 694 Da, 721 Da, 748 Da, and 776 Da species (Fig. 4 D and E). To identify these lipids, we performed tandem MS/MS, isolating the lipid species and subjecting it to collisional activation. […] The fatty acid fragments are mixed populations, predominantly 15:0-15:0, 15:0-17:0, 16:0-16:0, and 16:0-18:1 (SI Appendix, Fig. S9) which are the typical fatty acids from B. subtilis membrane phospholipids ([42]). We therefore conclude that UptA interacts more favorably with the anionic cardiolipins and phosphatidylglycerols than with the zwitterionic phosphatidylethanolamines in the membrane lipid extracts.
as §2
Lipid extracts from B. Subtilis
B. subtilis strain 168 (ATCC 23857) was cultivated in […] LB media at 37 °C until OD600 nm 1.2 under aurobic conditions. Cells were harvested by centrifugation at 4,000 g for 20 minutes and resuspended in 20 mM Tris-HCl (pH 8.0), 150 mM NaCl. Cells were lysed by 5-6 passes through a microfluidizer at 20,000 psi. The lysates were clarified by centrifugation at 4,000 g for 10 minutes, and the totoal membrane was pelleted at 120,000 g for 1 h. The membrane pellet was ressupended […]

The target in experiment [3] is T1, UptA. The experiment in a line: biochemical. The class given is binding. The settings on record: for binding to UptA by lipid chain length (in words): 4 µM UptA, 10-fold molar excess (40 µM) of lipid, pH 8.0, 200 mM ammonium acetate, 0.05% LDAO. Here is the method:
We explored the binding affinity of UptA toward C55-P by recording mass spectra for solutions containing 2.5 µM UptA and 0 to 40 µM C55-P in 200 mM ammonium acetate, 0.05% LDAO at pH 8.0. […] Further increase in the concentration of C55-P enhanced the intensity of the UptA:C55-P complex, together with the emergence of additional binding events (Fig. 2A). We deconvoluted the spectra ([34]) to extract mean relative intensities of bound and unbound forms of UptA in the spectral series.
To investigate the binding selectivity of UptA for monophosphate (C55-P) versus diphosphate (C55-PP) forms of the lipid carrier, we performed comparative binding assays. First, we recorded mass spectra for a mixture of UptA with increasing concentrations of C55-PP (SI Appendix, Fig. S3). […] We then fit the data to Hill equation to obtain an apparent Kd for this system.
UptA is a member of the DedA family of transporters whose cellular functions are potentially driven by proton-motive force and provide conditional fitness to bacteria under alkaline conditions ([25], [26], [36]). […] To this end, we equilibrated C55-P with UptA at a protein/ligand molar ratio of 1:4 in a buffer of the same composition but at pH 8.0 and 5.0. […] As a negative control, we tested for pH sensitivity of C55-P binding to MraY, the latter being the downstream enzyme in the peptidoglycan pathway that couples UM5 to C55-P. To this end, we equilibrated MraY and C55-P at a molar ratio of 1:4 in a buffer of pH 8.0 and pH 5.0.
Next, we investigated the chain length selectivity of UptA by testing its interaction with geranylgeranyl phosphate (C20-P), hexaprenyl phosphate (C30-P), and C55-P; the latter representing the native form of the lipid carrier in the model organisms B. subtilis and E. coli ([39]). For this experiment, we incubated 4 µM UptA with a 10-fold molar excess of C20-P, C30-P, and C55-P at pH 8.0 and recorded spectra under the same conditions. […] The length and stereochemistry of lipid tails can influence their interactions with membrane proteins ([40]).
Detailed experimental procedures are provided in SI Appendix. Briefly, UptA (wild type and mutants) was expressed in E. coli C43(DE3) cells (Lucigen) with GFP fusion on the C-terminus and solubilized from the membrane fraction by n-dodecyl-β-D-maltopyranoside (DDM). After purification by affinity chromatography, the GFP was cleaved by TEV protease and removed, and UptA was further purified by size-exclusion chromatography in a buffer containing 20 mM Tris-HCl (pH 8.0), 200 mM NaCl, 0.02% DDM. Before measurements, proteins were buffer-exchanged into 0.05% LDAO, 200 mM ammonium acetate at the desired pH using a centrifugal buffer exchange device (Micro Bio-Spin 6, Bio-Rad). Stock solutions of lipids were prepared from chloroform/methanol solution by evaporating aliquots of known volume in a SpeedVac. After drying, the lipid films were weighed and resuspended to a final concentration of 0.5 mM in 200 mM ammonium acetate and 0.05% LDAO by vertexing.

T1 sequence (O31823 whole entry): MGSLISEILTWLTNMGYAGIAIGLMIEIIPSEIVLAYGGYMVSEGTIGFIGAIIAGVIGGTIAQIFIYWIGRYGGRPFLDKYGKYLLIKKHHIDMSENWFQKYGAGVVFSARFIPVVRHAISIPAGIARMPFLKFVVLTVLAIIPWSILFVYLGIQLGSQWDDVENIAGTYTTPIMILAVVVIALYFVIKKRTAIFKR

Consider vancomycin, for which, at UptA [1], the “binding of antibiotic to UptA (in words)” value is listed as “bind to UptA but with very low intensities”. The “effect of antibiotic on UptA:C55-P complex (in words)” value with UptA:C55-P complex is recorded as “no observable impact on C55-P binding”.

As to `CCC(C)CCCCCCCCCCC(=O)OC[C@H](COP(=O)(O)OCCN)OC(=O)CCCCCCCCCCCC(C)C` (stereo partly shown) [a15:0-i15:0 PE], the “UptA-lipid complexes formed (stoichiometry, in words)” value on UptA [2] is recorded as “only a 1:1 complex”.

Consider `CC[C@@H](C)CCCCCCCCCCC(=O)OC[C@H](COP(=O)([O-])OCC(O)CO)OC(=O)CCCCCCCCCCCC(C)C.[Na+]` (stereo partly shown) [a15:0-i15:0 PG], for which the “mean relative intensity of UptA in complex with phospholipid, comparison (in words)” value on UptA [2] (4 µM UptA with 10 µM lipid (stated for a15:0-i15:0 lipids), mean of three independent replicates) is listed as “higher than for a15:0-i15:0 PE”. Besides, the “UptA-lipid complexes formed (stoichiometry, in words)” value on UptA [2] is 1:1 and 1:2 protein-lipid complexes.

For the compound `CC(C)=CCC/C(C)=C/CC/C(C)=C/CC/C(C)=C\CC/C(C)=C\CC/C(C)=C\CC/C(C)=C\CC/C(C)=C\CC/C(C)=C\CC/C(C)=C\CC/C(C)=C\COP(=O)(O)OP(=O)(O)O` [C55-PP, undecaprenyl diphosphate], the “selectivity of UptA for C55-P versus C55-PP (in words)” value on UptA [3] (native MS, 200 mM ammonium acetate, pH 8, 0.05% LDAO) is “UptA bind C55-PP but with lesser intensities compared to C55-P”. At UptA [3] (read-out: apparent Kd for the binding of one ligand molecule (1×) to UptA), the Kd was determined as 15.3 µM.

For polymyxin E, at UptA [1], the “binding of antibiotic to UptA (in words)” value was “do not bind to UptA”. Further, the “effect of antibiotic on UptA:C55-P complex (in words)” value in the experiment with UptA:C55-P complex is “attenuation of C55-P binding to UptA (SI Appendix, Fig. S10), but this effect is less significant compared to the impact of amphomycin analogs”.

With `CC(C)=CCCC(C)=CCCC(C)=CCCC(C)=CCCC(C)=CCCC(C)=CCOP(=O)(O)O` [C30-P, hexaprenyl phosphate], at UptA [3], the “binding to UptA by lipid chain length (in words)” value is recorded as “higher binding affinity of UptA to C30-P compared to C20-P”.

As to `CC(C)=CCC/C(C)=C/CC/C(C)=C/CC/C(C)=C/COP(=O)(O)O` [C20-P, geranylgeranyl phosphate], the “binding to UptA by lipid chain length (in words)” value at UptA [3] is “low-intensity peaks corresponding by mass to UptA:C20-P complexes, leaving most of the protein in the apo form”.

Take polymyxin B: at UptA [1], the “binding of antibiotic to UptA (in words)” value is on record as “do not bind to UptA”. Besides, in the experiment on UptA:C55-P complex, the “effect of antibiotic on UptA:C55-P complex (in words)” value is “attenuation of C55-P binding to UptA (SI Appendix, Fig. S10), but this effect is less significant compared to the impact of amphomycin analogs”.
